Six compounds from patent EP0591765A2, “1,4-Dihydropyridine-alkoxy and alkylamino esters as antihypertensives” (BAYER AG, priority 1992, dated 1994) can be followed below.

SMILES strings stand for the structures.

The assay concerns SH-Ratte. Put plainly: Blood pressure lowering in conscious spontaneously hypertensive rats (tail cuff, oral dosing). Type of assay: in vivo. The settings on record: Rattus norvegicus; SH-Ratte: Blutdrucksenkung >15 mm; intragastral ("oral") in Tylosesuspension; read-out: Grenzdosis. From the text:
Die Substanzen wurden an der wachen Ratte auf ihre blutdrucksenkende Wirkung hin untersucht. An wachen Ratten mit genetisch bedingtem Hochdruck ("spontan hypertone Ratten" des Okamoto-Stammes) wird der arterielle Blutdruck mit der "Schwanz-Manchette" in definierten Zeitabständen nach Substanzgabe unblutig gemessen. Die zu prüfenden Substanzen werden aufgeschwemmt in einer Tylosesuspension intragastral ("oral") per Schlundsonde in verschiedenen Dosen appliziert. Die erfindungsgemäßen Verbindungen senken den arteriellen Blutdruck der Hochdruckratten in klinisch relevanter Dosierung.
In the case of `COC(=O)C1=C(C)NC(C)=C(C(=O)OCCOC(=O)c2ccccc2OC(C)=O)C1c1ccccc1C(F)(F)F` (stereo not drawn) [Beispiel 1, 5-[2-(2-Acetoxybenzoyloxy)ethoxycarbonyl]-2,6-dimethyl-4-(2-trifluormethylphenyl)-1,4-dihydropyridin-3-carbonsäuremethylester], the minimal effective dose was 10 mg/kg.
With `CC(=O)Oc1ccccc1C(=O)OCCOC(=O)C1=C(C)NC(C)=C(C(=O)OC(C)C)C1c1ccccc1[N+](=O)[O-]` (stereo not drawn) [Beispiel 2] the figure was 30 mg/kg.
Consider `CC(=O)Oc1ccccc1C(=O)OCCOC(=O)C1=C(C)NC(C)=C(C(=O)OC(C)C)C1c1ccccc1C(F)(F)F` (stereo not drawn) [Beispiel 3], for which the minimal effective dose was 10 mg/kg.
Take `CC(=O)Oc1ccccc1C(=O)OCCOC(=O)C1=C(C)NC(C)=C(C(=O)OC(C)C)C1c1ccccc1Cl` (stereo not drawn) [Beispiel 4]: the minimal effective dose worked out at 30 mg/kg.
`CCOC(=O)C1=C(C)NC(C)=C(C(=O)OCCOC(=O)c2ccccc2OC(C)=O)C1c1ccccc1C(F)(F)F` (stereo not drawn) [Beispiel 5, 5-[2-(2-Acetoxybenzoyloxy)ethoxycarbonyl]-2,6-dimethyl-4-(2-trifluormethylphenyl)-1,4-dihydropyridin-3-carbonsäureethylester]: the minimal effective dose stood at 10 mg/kg.
With `COC(=O)C1=C(C)NC(C)=C(C(=O)OCCOC(=O)c2ccccc2OC(C)=O)C1c1cccc(Cl)c1Cl` (stereo not drawn) [Beispiel 6, 5-[2-(2-Acetoxybenzoyloxy)ethoxycarbonyl]-2,6-dimethyl-4-(2,3-dichlorphenyl)-1,4-dihydropyridin-3-carbonsäuremethylester] the figure was 3 mg/kg.
